ChEMBL document CHEMBL4020788, “Synthesis, SAR and molecular docking studies of benzo[d]thiazole-hydrazones as potential antibacterial and antifungal agents” (2017)
≈ marks a conversion by molar mass, not a printed value.

test system: Fusarium verticillioides; test: Antifungal activity against Fusarium moniliforme at 75 ug/ml after 48 hrs by agar well diffusion method; type: functional; details: read-out: DIZ

Row | Compound | zone of inhibition at 75 µg/mL [mm]
1 | Cc1cccc2nc(N/N=C/c3cc4ccccc4[nH]3)sc12 | 9

test system: Staphylococcus aureus; test: Antibacterial activity against methicillin resistant Staphylococcus aureus MRSA090 incubated for overnight by microdilution method; type: functional; details: not given

Row | Compound | MIC [µg/mL]
2 | Cc1cccc2nc(N/N=C/c3cc4ccccc4[nH]3)sc12 | 22 (≈ 71.8 µM)

test system: Bacillus subtilis; test: Antibacterial activity against Bacillus subtilis incubated for overnight by microdilution method; type: functional; details: not given

Row | Compound | MIC [µg/mL]
3 | Cc1cccc2nc(N/N=C/c3cc4ccccc4[nH]3)sc12 | 25 (≈ 81.6 µM)

test system: Fusarium verticillioides; test: Antifungal activity against Fusarium moniliforme at 100 ug/ml after 48 hrs by agar well diffusion method; type: functional; details: read-out: DIZ

Row | Compound | zone of inhibition at 100 µg/mL [mm]
4 | Cc1cccc2nc(N/N=C/c3cc4ccccc4[nH]3)sc12 | 22

test system: Staphylococcus aureus; test: Antibacterial activity against Staphylococcus aureus at 50 ug/ml after 24 hrs by agar well diffusion method; type: functional; details: read-out: DIZ

Row | Compound | zone of inhibition at 50 µg/mL [mm]
5 | Cc1cccc2nc(N/N=C/c3cc4ccccc4[nH]3)sc12 | 18

test system: Klebsiella pneumoniae; test: Antibacterial activity against Klebsiella pneumoniae at 25 ug/ml after 24 hrs by agar well diffusion method; type: functional; details: read-out: DIZ

Row | Compound | zone of inhibition at 25 µg/mL [mm]
6 | Cc1cccc2nc(N/N=C/c3cc4ccccc4[nH]3)sc12 | 4

test system: Fusarium verticillioides; test: Antifungal activity against Fusarium moniliforme at 50 ug/ml after 48 hrs by agar well diffusion method; type: functional; details: read-out: DIZ

Row | Compound | zone of inhibition at 50 µg/mL [mm]
7 | Cc1cccc2nc(N/N=C/c3cc4ccccc4[nH]3)sc12 | 14

test system: Klebsiella pneumoniae; test: Antibacterial activity against Klebsiella pneumoniae at 100 ug/ml after 24 hrs by agar well diffusion method; type: functional; details: read-out: DIZ

Row | Compound | zone of inhibition at 100 µg/mL [mm]
8 | Cc1cccc2nc(N/N=C/c3cc4ccccc4[nH]3)sc12 | 24

test system: Klebsiella pneumoniae; test: Antibacterial activity against Klebsiella pneumoniae at 50 ug/ml after 24 hrs by agar well diffusion method; type: functional; details: read-out: DIZ

Row | Compound | zone of inhibition at 50 µg/mL [mm]
9 | Cc1cccc2nc(N/N=C/c3cc4ccccc4[nH]3)sc12 | 9

test system: Fusarium verticillioides; test: Antifungal activity against Fusarium moniliforme at 25 ug/ml after 48 hrs by agar well diffusion method; type: functional; details: read-out: DIZ

Row | Compound | zone of inhibition at 25 µg/mL [mm]
10 | Cc1cccc2nc(N/N=C/c3cc4ccccc4[nH]3)sc12 | 8

test system: Aspergillus niger; test: Antifungal activity against Aspergillus niger at 50 ug/ml after 48 hrs by agar well diffusion method; type: functional; details: read-out: DIZ

Row | Compound | zone of inhibition at 50 µg/mL [mm]
11 | Cc1cccc2nc(N/N=C/c3cc4ccccc4[nH]3)sc12 | 19

test system: Bacillus subtilis; test: Antibacterial activity against Bacillus subtilis at 100 ug/ml after 24 hrs by agar well diffusion method; type: functional; details: read-out: DIZ

Row | Compound | zone of inhibition at 100 µg/mL [mm]
12 | Cc1cccc2nc(N/N=C/c3cc4ccccc4[nH]3)sc12 | 21

test system: Aspergillus niger; test: Antifungal activity against Aspergillus niger at 75 ug/ml after 48 hrs by agar well diffusion method; type: functional; details: read-out: DIZ

Row | Compound | zone of inhibition at 75 µg/mL [mm]
13 | Cc1cccc2nc(N/N=C/c3cc4ccccc4[nH]3)sc12 | 24

test system: Bacillus subtilis; test: Antibacterial activity against Bacillus subtilis at 75 ug/ml after 24 hrs by agar well diffusion method; type: functional; details: read-out: DIZ

Row | Compound | zone of inhibition at 75 µg/mL [mm]
14 | Cc1cccc2nc(N/N=C/c3cc4ccccc4[nH]3)sc12 | 19

test system: Fusarium oxysporum; test: Antifungal activity against Fusarium oxysporum at 75 ug/ml after 48 hrs by agar well diffusion method; type: functional; details: read-out: DIZ

Row | Compound | zone of inhibition at 75 µg/mL [mm]
15 | Cc1cccc2nc(N/N=C/c3cc4ccccc4[nH]3)sc12 | 31

test system: Fusarium verticillioides; test: Antifungal activity against Fusarium moniliforme after 48 to 72 hrs by microdilution method; type: functional; details: not given

Row | Compound | MIC [µg/mL]
16 | Cc1cccc2nc(N/N=C/c3cc4ccccc4[nH]3)sc12 | 24 (≈ 78.3 µM)

test system: Aspergillus niger; test: Antifungal activity against Aspergillus niger at 100 ug/ml after 48 hrs by agar well diffusion method; type: functional; details: read-out: DIZ

Row | Compound | zone of inhibition at 100 µg/mL [mm]
17 | Cc1cccc2nc(N/N=C/c3cc4ccccc4[nH]3)sc12 | 30

test system: Bacillus subtilis; test: Antibacterial activity against Bacillus subtilis at 25 ug/ml after 24 hrs by agar well diffusion method; type: functional; details: read-out: DIZ

Row | Compound | zone of inhibition at 25 µg/mL [mm]
18 | Cc1cccc2nc(N/N=C/c3cc4ccccc4[nH]3)sc12 | 10

test system: Escherichia coli; test: Antibacterial activity against Escherichia coli at 25 ug/ml after 24 hrs by agar well diffusion method; type: functional; details: read-out: DIZ

Row | Compound | zone of inhibition at 25 µg/mL [mm]
19 | Cc1cccc2nc(N/N=C/c3cc4ccccc4[nH]3)sc12 | 17

test system: Fusarium oxysporum; test: Antifungal activity against Fusarium oxysporum at 25 ug/ml after 48 hrs by agar well diffusion method; type: functional; details: read-out: DIZ

Row | Compound | zone of inhibition at 25 µg/mL [mm]
20 | Cc1cccc2nc(N/N=C/c3cc4ccccc4[nH]3)sc12 | 17

test system: Aspergillus niger; test: Antifungal activity against Aspergillus niger at 25 ug/ml after 48 hrs by agar well diffusion method; type: functional; details: read-out: DIZ

Row | Compound | zone of inhibition at 25 µg/mL [mm]
21 | Cc1cccc2nc(N/N=C/c3cc4ccccc4[nH]3)sc12 | 12

test system: Staphylococcus aureus; test: Antibacterial activity against Staphylococcus aureus at 100 ug/ml after 24 hrs by agar well diffusion method; type: functional; details: read-out: DIZ

Row | Compound | zone of inhibition at 100 µg/mL [mm]
22 | Cc1cccc2nc(N/N=C/c3cc4ccccc4[nH]3)sc12 | 30

test system: Escherichia coli; test: Antibacterial activity against Escherichia coli at 75 ug/ml after 24 hrs by agar well diffusion method; type: functional; details: read-out: DIZ

Row | Compound | zone of inhibition at 75 µg/mL [mm]
23 | Cc1cccc2nc(N/N=C/c3cc4ccccc4[nH]3)sc12 | 30

test system: Staphylococcus aureus; test: Antibacterial activity against methicillin resistant Staphylococcus aureus MRSA090 at 25 ug/ml after 24 hrs by agar well diffusion method; type: functional; details: MRSA090, 24 h, read-out: DIZ

Row | Compound | zone of inhibition at 25 µg/mL [mm]
24 | Cc1cccc2nc(N/N=C/c3cc4ccccc4[nH]3)sc12 | 16

test system: Staphylococcus aureus; test: Antibacterial activity against methicillin resistant Staphylococcus aureus MRSA090 at 75 ug/ml after 24 hrs by agar well diffusion method; type: functional; details: MRSA090, 24 h, read-out: DIZ

Row | Compound | zone of inhibition at 75 µg/mL [mm]
25 | Cc1cccc2nc(N/N=C/c3cc4ccccc4[nH]3)sc12 | 27

test system: Fusarium oxysporum; test: Antifungal activity against Fusarium oxysporum after 48 to 72 hrs by microdilution method; type: functional; details: not given

Row | Compound | MIC [µg/mL]
26 | Cc1cccc2nc(N/N=C/c3cc4ccccc4[nH]3)sc12 | 22 (≈ 71.8 µM)

test system: Staphylococcus aureus; test: Antibacterial activity against methicillin resistant Staphylococcus aureus MRSA090 at 100 ug/ml after 24 hrs by agar well diffusion method; type: functional; details: MRSA090, 24 h, read-out: DIZ

Row | Compound | zone of inhibition at 100 µg/mL [mm]
27 | Cc1cccc2nc(N/N=C/c3cc4ccccc4[nH]3)sc12 | 30

test system: Staphylococcus aureus; test: Antibacterial activity against Staphylococcus aureus at 75 ug/ml after 24 hrs by agar well diffusion method; type: functional; details: read-out: DIZ

Row | Compound | zone of inhibition at 75 µg/mL [mm]
28 | Cc1cccc2nc(N/N=C/c3cc4ccccc4[nH]3)sc12 | 24

test system: Staphylococcus aureus; test: Antibacterial activity against methicillin resistant Staphylococcus aureus MRSA090 at 50 ug/ml after 24 hrs by agar well diffusion method; type: functional; details: MRSA090, 24 h, read-out: DIZ

Row | Compound | zone of inhibition at 50 µg/mL [mm]
29 | Cc1cccc2nc(N/N=C/c3cc4ccccc4[nH]3)sc12 | 23

test system: Klebsiella pneumoniae; test: Antibacterial activity against Klebsiella pneumoniae incubated for overnight by microdilution method; type: functional; details: not given

Row | Compound | MIC [µg/mL]
30 | Cc1cccc2nc(N/N=C/c3cc4ccccc4[nH]3)sc12 | 25 (≈ 81.6 µM)

test system: Bacillus subtilis; test: Antibacterial activity against Bacillus subtilis at 50 ug/ml after 24 hrs by agar well diffusion method; type: functional; details: read-out: DIZ

Row | Compound | zone of inhibition at 50 µg/mL [mm]
31 | Cc1cccc2nc(N/N=C/c3cc4ccccc4[nH]3)sc12 | 14

test system: Staphylococcus aureus; test: Antibacterial activity against Staphylococcus aureus at 25 ug/ml after 24 hrs by agar well diffusion method; type: functional; details: read-out: DIZ

Row | Compound | zone of inhibition at 25 µg/mL [mm]
32 | Cc1cccc2nc(N/N=C/c3cc4ccccc4[nH]3)sc12 | 14

test system: Fusarium oxysporum; test: Antifungal activity against Fusarium oxysporum at 50 ug/ml after 48 hrs by agar well diffusion method; type: functional; details: read-out: DIZ

Row | Compound | zone of inhibition at 50 µg/mL [mm]
33 | Cc1cccc2nc(N/N=C/c3cc4ccccc4[nH]3)sc12 | 24

test system: Aspergillus niger; test: Antifungal activity against Aspergillus niger after 48 to 72 hrs by microdilution method; type: functional; details: not given

Row | Compound | MIC [µg/mL]
34 | Cc1cccc2nc(N/N=C/c3cc4ccccc4[nH]3)sc12 | 25 (≈ 81.6 µM)

test system: Klebsiella pneumoniae; test: Antibacterial activity against Klebsiella pneumoniae at 75 ug/ml after 24 hrs by agar well diffusion method; type: functional; details: read-out: DIZ

Row | Compound | zone of inhibition at 75 µg/mL [mm]
35 | Cc1cccc2nc(N/N=C/c3cc4ccccc4[nH]3)sc12 | 18

test system: Escherichia coli; test: Antibacterial activity against Escherichia coli incubated for overnight by microdilution method; type: functional; details: not given

Row | Compound | MIC [µg/mL]
36 | Cc1cccc2nc(N/N=C/c3cc4ccccc4[nH]3)sc12 | 24 (≈ 78.3 µM)

test system: Escherichia coli; test: Antibacterial activity against Escherichia coli at 50 ug/ml after 24 hrs by agar well diffusion method; type: functional; details: read-out: DIZ

Row | Compound | zone of inhibition at 50 µg/mL [mm]
37 | Cc1cccc2nc(N/N=C/c3cc4ccccc4[nH]3)sc12 | 24

test system: Staphylococcus aureus; test: Antibacterial activity against Staphylococcus aureus incubated for overnight by microdilution method; type: functional; details: not given

Row | Compound | MIC [µg/mL]
38 | Cc1cccc2nc(N/N=C/c3cc4ccccc4[nH]3)sc12 | 24 (≈ 78.3 µM)

test system: Fusarium oxysporum; test: Antifungal activity against Fusarium oxysporum at 100 ug/ml after 48 hrs by agar well diffusion method; type: functional; details: read-out: DIZ

Row | Compound | zone of inhibition at 100 µg/mL [mm]
39 | Cc1cccc2nc(N/N=C/c3cc4ccccc4[nH]3)sc12 | 36

test system: Escherichia coli; test: Antibacterial activity against Escherichia coli at 100 ug/ml after 24 hrs by agar well diffusion method; type: functional; details: read-out: DIZ

Row | Compound | zone of inhibition at 100 µg/mL [mm]
40 | Cc1cccc2nc(N/N=C/c3cc4ccccc4[nH]3)sc12 | 33
